In patent US20230085307A1, “PYRIDAZINONE COMPOUND AND HERBICIDE” (NISSAN CHEMICAL CORPORATION, priority 2019, published 2023):

How the values were obtained:
redroot pigweed = test: Test Example 4: herbicidal effect by soil treatment (Table 19, symbol N); format: in vivo, redroot pigweed (Amaranthus retroflexus); settings: amount of applied herbicide 320 g/ha
Outline: (§1)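 Applied as a water-diluted emulsion, the compound was sprayed onto soil covering newly sown seeds. Evaluation came three weeks after application, in a greenhouse held at 25° C. to 30° C.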

oval-leafed pondweed [1] = test: Test Example 2: herbicidal activity, application during weed generation under submerged conditions (Table 17, symbol C); format: in vivo, oval-leafed pondweed (Monochoria vaginalis); settings: AAH 320 g/ha; application during weed generation, submerged conditions
Outline: (§2)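 Wagner pot, alluvial soil, 4 cm flood; mixed sowing of all species; greenhouse 25° C.–30° C. Emulsifiable formulation, water-diluted to predetermined dose, applied to paddy water at 1–2 leaf stage. Effect rated at 3 wk using the earlier test's scoring criteria.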

late watergrass = test: Test Example 2: herbicidal activity, application during weed generation under submerged conditions (Table 17, symbol A); format: in vivo, late watergrass (Echinochloa oryzicola); settings: AAH 320 g/ha; application during weed generation, submerged conditions
Outline: as §2

rice flat sedge = test: Test Example 3: herbicidal effect by foliage application, Wagner pot (Table 18, symbol E); format: in vivo, rice flat sedge (Cyperus iria); settings: amount of applied herbicide 320 g/ha
Outline: (§3)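 Plants were sown in alluvial soil held under 0.1–0.5 cm standing water and grown 14 days in a greenhouse at 25–30 °C. An emulsifiable formulation, water-diluted to the set dose, was then sprayed onto the foliage, and effects were scored three weeks later using previously defined criteria.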

southern crabgrass [2] = test: Test Example 5: herbicidal effect by foliage application, plastic box (Table 20, symbol F); format: in vivo, southern crabgrass (Digitaria ciliaris); settings: foliage application, 320 g/ha, three weeks after application
Outline: (§4)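 Sow seeds spot-wise in sterilized diluvial soil; cover with ~1.5 cm soil. Grow 14 days in greenhouse, 25° C. to 30° C. Spray foliage with emulsion diluted to predetermined amount. Rate effect after 3 weeks.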

blackgrass [3] = test: Test Example 4: herbicidal effect by soil treatment (Table 19, symbol J); format: in vivo, blackgrass (Alopecurus myosuroides); settings: amount of applied herbicide 320 g/ha
Outline: as §1

persian speedwell = test: Test Example 4: herbicidal effect by soil treatment (Table 19, symbol R); format: in vivo, Persian speedwell (Veronica persica); settings: amount of applied herbicide 320 g/ha
Outline: as §1

barnyard grass [4] = test: Test Example 3: herbicidal effect by foliage application, Wagner pot (Table 18, symbol H); format: in vivo, barnyard grass (Echinochloa crus-galli); settings: amount of applied herbicide 320 g/ha
Outline: as §3

false cleavers = test: Test Example 4: herbicidal effect by soil treatment (Table 19, symbol Q); format: in vivo, false cleavers (Galium spurium); settings: amount of applied herbicide 320 g/ha
Outline: as §1

velvetleaf = test: Test Example 4: herbicidal effect by soil treatment (Table 19, symbol M); format: in vivo, velvetleaf (Abutilon theophrasti); settings: amount of applied herbicide 320 g/ha
Outline: as §1

southern crabgrass [5] = test: Test Example 4: herbicidal effect by soil treatment (Table 19, symbol F); format: in vivo, southern crabgrass (Digitaria ciliaris); settings: amount of applied herbicide 320 g/ha
Outline: as §1

Italian ryegrass = test: Test Example 5: herbicidal effect by foliage application, plastic box (Table 20, symbol K); format: in vivo, Italian ryegrass (Lolium multiflorum); settings: foliage application, 320 g/ha, three weeks after application
Outline: as §4

barnyard grass [6] = test: Test Example 5: herbicidal effect by foliage application, plastic box (Table 20, symbol H); format: in vivo, barnyard grass (Echinochloa crus-galli); settings: foliage application, 320 g/ha, three weeks after application
Outline: as §4

oval-leafed pondweed [7] = test: Test Example 1: herbicidal activity, application before weed generation under submerged conditions (Table 16, symbol C); format: in vivo, oval-leafed pondweed (Monochoria vaginalis); settings: amount of applied herbicide 320 g/ha
Outline: (§5)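 Alluvial soil was flooded to 4 cm depth, weed seeds were sown mixed and 2.5-leaf rice seedlings were transplanted. On sowing day, the compound's emulsion, diluted in water to a set dose, was applied to the water surface. Plants grew at 25–30 °C and were scored 0–5 after three weeks.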

blackgrass [8] = test: Test Example 5: herbicidal effect by foliage application, plastic box (Table 20, symbol J); format: in vivo, blackgrass (Alopecurus myosuroides); settings: foliage application, 320 g/ha, three weeks after application
Outline: as §4

chickweed = test: Test Example 5: herbicidal effect by foliage application, plastic box (Table 20, symbol P); format: in vivo, common chickweed (Stellaria media); settings: foliage application, 320 g/ha, three weeks after application
Outline: as §4

Japanese bulrush = test: Test Example 1: herbicidal activity, application before weed generation under submerged conditions (Table 16, symbol B); format: in vivo, Japanese bulrush (Schoenoplectus juncoides); settings: amount of applied herbicide 320 g/ha
Outline: as §5

SMILES | herbicidal effect, N: redroot pigweed (redroot pigweed) | herbicidal effect rating, C: oval-leafed pondweed (oval-leafed pondweed [1]) | herbicidal effect rating, A: late watergrass (late watergrass) | herbicidal effect on E: rice flat sedge (rice flat sedge) | F: southern crabgrass, herbicidal effect grade (southern crabgrass [2]) | herbicidal effect, J: blackgrass (blackgrass [3]) | herbicidal effect, R: persian speedwell (persian speedwell) | herbicidal effect on H: barnyard grass (barnyard grass [4]) | herbicidal effect, Q: false cleavers (false cleavers) | herbicidal effect, M: velvetleaf (velvetleaf) | herbicidal effect, F: southern crabgrass (southern crabgrass [5]) | K: Italian ryegrass, herbicidal effect grade (Italian ryegrass) | H: barnyard grass, herbicidal effect grade (barnyard grass [6]) | Herbicidal effect, C: oval-leafed pondweed (oval-leafed pondweed [7]) | J: blackgrass, herbicidal effect grade (blackgrass [8]) | P: chickweed, herbicidal effect grade (chickweed) | Herbicidal effect, B: Japanese bulrush (Japanese bulrush)
COc1ccccc1-c1sc2cc(F)ccc2c1-c1c(O)c(C)nn(C)c1=O [3-003] | 5 (Herbicidal rate of 90% or more (almost completely withered)) | 4 (Herbicidal rate of 70% or more and less than 90%) | 2 (Herbicidal rate of 20% or more and less than 40%) | 5 (Herbicidal rate of 90% or more (almost completely withered)) | 5 (Herbicidal rate of 90% or more (almost completely withered)) | 3 (Herbicidal rate of 40% or more and less than 70%) | 4 (Herbicidal rate of 70% or more and less than 90%) | 5 (Herbicidal rate of 90% or more (almost completely withered)) | 4 (Herbicidal rate of 70% or more and less than 90%) | 3 (Herbicidal rate of 40% or more and less than 70%) | 4 (Herbicidal rate of 70% or more and less than 90%) | 5 (Herbicidal rate of 90% or more (almost completely withered)) | 5 (Herbicidal rate of 90% or more (almost completely withered)) | 5 (Herbicidal rate of 90% or more (almost completely withered)) | 5 (Herbicidal rate of 90% or more (almost completely withered)) | 5 (Herbicidal rate of 90% or more (almost completely withered)) | 4 (Herbicidal rate of 70% or more and less than 90%)
CCOc1ccccc1-c1sc2cc(F)ccc2c1-c1c(O)c(C)nn(C)c1=O [3-006] | 5 (Herbicidal rate of 90% or more (almost completely withered)) | 5 (Herbicidal rate of 90% or more (almost completely withered)) | 3 (Herbicidal rate of 40% or more and less than 70%) | 5 (Herbicidal rate of 90% or more (almost completely withered)) | 5 (Herbicidal rate of 90% or more (almost completely withered)) | 5 (Herbicidal rate of 90% or more (almost completely withered)) | 5 (Herbicidal rate of 90% or more (almost completely withered)) | 5 (Herbicidal rate of 90% or more (almost completely withered)) | 5 (Herbicidal rate of 90% or more (almost completely withered)) | 4 (Herbicidal rate of 70% or more and less than 90%) | 5 (Herbicidal rate of 90% or more (almost completely withered)) | 5 (Herbicidal rate of 90% or more (almost completely withered)) | 5 (Herbicidal rate of 90% or more (almost completely withered)) | 4 (Herbicidal rate of 70% or more and less than 90%) | 5 (Herbicidal rate of 90% or more (almost completely withered)) | 5 (Herbicidal rate of 90% or more (almost completely withered)) | 5 (Herbicidal rate of 90% or more (almost completely withered))
CCCC(=O)Oc1c(C)nn(C)c(=O)c1-c1c(-c2ccc(OC)cc2)sc2cc(F)ccc12 [3-008] | 5 (Herbicidal rate of 90% or more (almost completely withered)) | 4 (Herbicidal rate of 70% or more and less than 90%) | 0 (Herbicidal rate of 5% or less (almost no effect)) | 5 (Herbicidal rate of 90% or more (almost completely withered)) | 4 (Herbicidal rate of 70% or more and less than 90%) | 0 (Herbicidal rate of 5% or less (almost no effect)) | 5 (Herbicidal rate of 90% or more (almost completely withered)) | 4 (Herbicidal rate of 70% or more and less than 90%) | 2 (Herbicidal rate of 20% or more and less than 40%) | 0 (Herbicidal rate of 5% or less (almost no effect)) | 0 (Herbicidal rate of 5% or less (almost no effect)) | 3 (Herbicidal rate of 40% or more and less than 70%) | 4 (Herbicidal rate of 70% or more and less than 90%) | 5 (Herbicidal rate of 90% or more (almost completely withered)) | 1 (Herbicidal rate of 5% or more and less than 20%) | 5 (Herbicidal rate of 90% or more (almost completely withered)) | 5 (Herbicidal rate of 90% or more (almost completely withered))
COc1cc(F)ccc1-c1sc2cc(F)ccc2c1-c1c(O)c(C)nn(C)c1=O [3-009] | 5 (Herbicidal rate of 90% or more (almost completely withered)) | 3 (Herbicidal rate of 40% or more and less than 70%) | 0 (Herbicidal rate of 5% or less (almost no effect)) | 5 (Herbicidal rate of 90% or more (almost completely withered)) | 5 (Herbicidal rate of 90% or more (almost completely withered)) | 4 (Herbicidal rate of 70% or more and less than 90%) | 5 (Herbicidal rate of 90% or more (almost completely withered)) | 5 (Herbicidal rate of 90% or more (almost completely withered)) | 5 (Herbicidal rate of 90% or more (almost completely withered)) | 3 (Herbicidal rate of 40% or more and less than 70%) | 5 (Herbicidal rate of 90% or more (almost completely withered)) | 5 (Herbicidal rate of 90% or more (almost completely withered)) | 5 (Herbicidal rate of 90% or more (almost completely withered)) | 1 (Herbicidal rate of 5% or more and less than 20%) | 5 (Herbicidal rate of 90% or more (almost completely withered)) | 5 (Herbicidal rate of 90% or more (almost completely withered)) | 3 (Herbicidal rate of 40% or more and less than 70%)
CCCC(=O)Oc1c(C)nn(C)c(=O)c1-c1c(-c2ccc(F)cc2OC)sc2cc(F)ccc12 [3-010] | 5 (Herbicidal rate of 90% or more (almost completely withered)) | 4 (Herbicidal rate of 70% or more and less than 90%) | 3 (Herbicidal rate of 40% or more and less than 70%) | 4 (Herbicidal rate of 70% or more and less than 90%) | 3 (Herbicidal rate of 40% or more and less than 70%) | 4 (Herbicidal rate of 70% or more and less than 90%) | 5 (Herbicidal rate of 90% or more (almost completely withered)) | 5 (Herbicidal rate of 90% or more (almost completely withered)) | 5 (Herbicidal rate of 90% or more (almost completely withered)) | 0 (Herbicidal rate of 5% or less (almost no effect)) | 3 (Herbicidal rate of 40% or more and less than 70%) | 4 (Herbicidal rate of 70% or more and less than 90%) | 5 (Herbicidal rate of 90% or more (almost completely withered)) | 3 (Herbicidal rate of 40% or more and less than 70%) | 5 (Herbicidal rate of 90% or more (almost completely withered)) | 5 (Herbicidal rate of 90% or more (almost completely withered)) | 4 (Herbicidal rate of 70% or more and less than 90%)
